# Measured values published in a melting point compilation (Tetko et al.; mined from patent text by program, amines drawn as free bases though some values may be those of a salt).
row,SMILES,melting point
1,O=c1[nH]c2cc(F)c(NCC3=CCCOC3)cc2o1,175 to 176 °C
2,OC1CSC(Oc2ccc(F)nc2)C(O)C1O (stereo unspecified),209 to 210 °C
3,CC(C)c1cccc(C(C)C)c1NC(=O)Cc1c(-c2ccccc2)c2cc(Cl)ccc2n1C,279 to 280 °C
4,CCCCCCCS(=O)(=O)c1ccc(N)cc1,91 to 92 °C
5,O=[N+]([O-])c1cccc(N2CCOCC2)c1,87 to 90 °C
6,O=C1C(=Cc2cccc(OCCCCl)c2)Cc2ccccc21,73 to 75 °C
7,O=C(NC1CCCC1)NS(=O)(=O)c1cccc(Cl)c1Cl,202 to 207 °C
8,COc1cc2c(=O)n(CCCO)c3c4ccccc4[nH]c(=O)c3c2cc1OC,313 °C
9,Cc1ccc2ncc(CSc3ccc([N+](=O)[O-])cc3)n2c1,127 to 128 °C
10,CS(=O)(=O)Oc1ccc(S)cc1,66 to 68 °C
11,CC1(CN)CN(c2cc3c(cc2F)c(=O)c(C(=O)O)cn3C2CC2)C1,274 to 279 °C
12,CCN1c2ncccc2C(SC)=Nc2c(C)cc(C)nc21,130 to 132 °C
13,CCOP(=O)(O)Cc1ccc(NC(=O)CCc2cnoc2-c2ccccc2)cc1,80 to 82 °C
14,O=C(c1cc2ccc(N3CCOCC3)cc2o1)C12CC3CC(CC(C3)C1)C2,123 to 125 °C
15,NC(C(=O)O)c1ccc(C(=O)O)c(O)c1CCCc1ccccc1 (stereo unspecified),> 250 °C
16,CC(C)(c1cc(Cl)ccc1O)c1cc(Cl)ccc1O,142 °C
17,Fc1ccccc1CNc1nc(Cl)ncc1F,117 to 118 °C
18,Cc1cccc(C)c1NC(=O)NC1(c2cccs2)CCCCC1,220 to 222 °C
19,CCCc1cc(Cl)c2oc(-c3ccccc3)c(C)c2c1OC(C)=O,86 to 87 °C
20,COC(=O)[C@H](CC(C)C)NC(=O)c1ccc2c(c1)Nc1ccccc1S2,160 to 161 °C
21,CCCc1nn(CC)c(C(=O)O)c1Cc1ccc(-c2ccccc2NS(=O)(=O)C(F)(F)F)cc1,68 to 72 °C
22,C[C@H]1Oc2ccc(F)cc2N(C)C(=O)[C@H]1NC(=O)OC(C)(C)C,129 to 133 °C
23,CCCCC[C@H]1CC[C@H](c2ccc(-c3ccc(CO)cc3)cc2)CC1,180 °C
24,CCCC(COc1noc2ccc(Cl)cc12)NC=O (stereo unspecified),107 to 108 °C
25,Cc1cc2c(-c3cccc(Cl)c3)nc(Cl)nc2s1,118 to 120 °C
26,O=C(O)c1cccc(NC(=O)c2sc3c([N+](=O)[O-])c(O)c(O)cc3c2Cl)c1,293 to 294 °C

row,SMILES,melting point
1,O=C(Nc1ccc(C[C@H](NS(=O)(=O)NCC2CCCCC2)C(=O)O)cc1)c1c(Cl)cncc1Cl,196 °C
2,Cn1ncc2c(C(F)F)cc(Cl)nc21,105 °C
3,CCCS(=O)c1ccc(-c2coc3ccc(-c4nnc(C)o4)cc23)cc1 (stereo unspecified),140 to 141 °C
4,Cc1cc(=O)c2ccc(OCC(O)CCl)cc2o1 (stereo unspecified),104 to 106 °C
5,O=C1NCCc2c(-c3cccc(CCO)c3)[nH]c3cccc1c23,188 °C
6,O=C(NC1CCCCC1)N1CCC(c2cn(C(=O)NC3CCCCC3)cn2)CC1,166 °C
7,COCCC(=O)Nc1ccc(CCCc2ccccc2OCc2ccccc2)cc1,65 to 66 °C
8,CCCc1nnc2n1N=C(c1ccc([N+](=O)[O-])cc1)c1cc(OC)c(Br)cc1C2,238 to 240 °C
9,Cc1ccc(S(=O)(=O)C#CBr)cc1,99 to 101 °C
10,OC(CCl)COc1ccccc1OCC(O)CCl (stereo unspecified),64 to 66 °C
11,O=[N+]([O-])c1c(O)ccc2cc(-c3ccc(O)cc3)ccc12,199 to 201 °C
12,Cc1nc(Cl)c(C)c(Cl)n1,46 to 47 °C
13,COc1ccc(CS[C@H]2C[C@@H](C(=O)N3CCN(CCO)CC3)N(C(=O)OCc3ccc([N+](=O)[O-])cc3)C2)cc1,140 to 141 °C
14,CC(C)(C)S(=O)(=O)c1cccc(-c2nc(=O)c3ccccc3s2)n1,234 to 235 °C
15,Cc1c(C(=O)O)cccc1-n1cccc1,146 to 148 °C
16,CCCCCCCCCCCCCC(=O)OCC1(CO)CCC(=O)O1 (stereo unspecified),65 to 66 °C
17,COc1ccc2c(c1)CC[C@H](CN1CCC3(CC1)C(=O)NCN3c1ccccc1)[C@@H]2O (relative stereo),182 to 183 °C
18,COC(=O)C(C)(O[Si](C)(C)C(C)(C)C)c1ccc([N+](=O)[O-])cc1 (stereo unspecified),65 to 66 °C
19,O=C(Cc1ccc(Br)cc1)OCc1ccccc1,47.5 to 48 °C
20,O=C(Nc1cn(C2CCCCO2)nc1C(=O)NCCCO)c1ccccn1 (stereo unspecified),139 to 140 °C
21,"CC(=O)NCC1CC(c2ccc(-n3ccc(C=NO)c3)c(F)c2)=NO1 (single isomer, unassigned; (-))",216 to 217 °C
22,COC(=O)C(C)(C)Cc1cc2cc(OCc3ccc4ccccc4n3)ccc2[nH]1,131 to 132 °C
23,Cc1oc(-c2ccccc2)nc1C(=O)COc1ccc(C#N)cc1,202 to 203 °C
24,CC12CCC(=O)C=C1CCC1C2CCC2(C)C(C(=O)NC3C4CC5CC(C4)CC3C5)CCC12 (stereo unspecified),244 to 246 °C
25,CN1CCN(C(=S)Cc2ccc(S(C)(=O)=O)cc2)CC1,172 to 177 °C
26,O=C1[C@H]2CCC[C@H]2N(C(=O)CBr)c2ccccc2N1Cc1ccccc1F (relative stereo),198 to 200 °C

row,SMILES,melting point
1,COc1cccc(CNC(=O)c2nc3scc(COc4ccc(C(=O)O)cc4)c3c(=O)[nH]2)c1,297 to 299 °C
2,C=C(CCC(C)C1CCC2C3=C(C(=O)CC21C)C1(C)CCC(=O)C(C)C1CC3)C(C)C(=O)OC (stereo unspecified),100 to 102 °C
3,O=C1NC(=O)C(S(=O)(=O)c2ccc3ccccc3c2)S1 (stereo unspecified),196 to 197 °C
4,CS(=O)(=O)NCCCn1cnc(-c2ccc(F)cc2)c1-c1ccncc1,186 to 187 °C
5,COc1ccc(CN(C)CCCOc2ccc(NC(=O)c3cccc4c(=O)c5cccc(OC)c5[nH]c34)cc2)cc1OC,180 °C
6,CC(=Cc1ccc(F)c(F)c1)C(=O)O,122 to 125 °C
7,CC(Cc1ccc(O)cc1)N(CC(=O)c1ccccc1)Cc1ccc(OCc2ccccc2)c([N+](=O)[O-])c1 (stereo unspecified),84 to 85 °C
8,COc1cc(OC)nc(NC(=O)N=NS(=O)(=O)C2OCCN2C)n1 (stereo unspecified),174 to 175 °C
9,CC(C)(C)c1ccc(C2OCC(CO)(NC(=O)c3c(Cl)cccc3Cl)CO2)cc1 (stereo unspecified),178 to 180 °C
10,CCCCCCCCCCCCCCCCCCSc1ccc(C)cc1,54 to 55 °C
11,FC(F)(Br)C(F)(F)Oc1ccc(C2(c3ccc(OC(F)(F)C(F)(F)Br)cc3)c3ccccc3-c3ccccc32)cc1,157 to 158 °C
12,CCOc1ccc2c(c1)n(-c1ccccn1)c(=O)n2S(=O)(=O)c1ccc([N+](=O)[O-])cc1OC,175 °C
13,OCn1nnc2ccccc21,148 °C
14,Cc1ccc2sc3cc(F)ccc3c(=O)c2c1,159 to 165 °C
15,CCOC(=O)c1ncc2[nH]c3ccc(C(C)(C)C)cc3c2c1C,201 to 203 °C
16,C=Cc1c(F)c(F)c(F)c2c1c(=O)c(C(=O)OCC)cn2C1CC1,188 to 189 °C
17,CCCOC12CCC(=O)C3(C)Oc4c(O)ccc5c4C31CCN(CC1CC1)C2C5 (stereo unspecified),184 to 186 °C
18,Clc1cc2nc(-c3csc(Cc4c(Cl)cccc4Cl)n3)[nH]c2cc1Cl,245 to 247 °C
19,COc1cc(F)cnc1OCC#Cc1ccc(Cl)nc1,101 to 102 °C
20,CCOC(=O)c1nccn1C1Sc2ccccc2C1=O (stereo unspecified),174 °C
21,CN1CC(c2cccc(Cl)c2)C(=O)C(c2cccc(Cl)c2)C1 (stereo unspecified),140 °C
22,CS(=O)(=O)C(=C1CN(C(c2ccccc2)c2ccccc2)C1)c1ccc(O)cc1,211 °C
23,CCCn1nc(-c2ccc(OC(=O)CC(C)(C)C)cc2)c2cccc(Cl)c21,71 to 72 °C
24,COCc1nc(OC)c(NS(=O)(=O)c2cccc(Cl)c2Cl)nc1Cl,193 to 196 °C
25,CS(=O)C1C=Nc2cc(Cl)ccc2C1=O (stereo unspecified),247 to 249 °C
26,Cc1ccc(C(=O)CC(=O)C(F)F)cc1Cl,40 to 41 °C

row,SMILES,melting point
1,CCN(CCNS(=O)(=O)c1ccc(C)cc1)C(=O)c1ccccc1C(=O)c1ccc(Cl)cc1,145 to 147 °C
2,COc1ccc(Cl)cc1N1CCN(CCCNC(=O)c2cccc3c(=O)c(C)c(C(N)=O)oc23)CC1,184 to 192 °C
3,COC1=C(OC)C(=O)C(CCCCCCCCCCCCC(=O)O)=C(C)C1=O,62 °C
4,Clc1ccc(N2CCN=C2C(Cn2cncn2)c2ccccc2)c(Cl)c1 (stereo unspecified),78 to 82 °C
5,COc1ccc2c(c1)C(=O)C(Cc1cccc(NS(=O)(=O)C(F)(F)F)c1)CC2 (stereo unspecified),152 to 154 °C
6,COc1cc(OC)nc(SC)n1,50 to 52 °C
7,CCN(CC)CCNC(=O)c1cc(I)cc2c(F)ccnc12,79 to 81 °C
8,COc1ccc(-c2cc3ncc(SC)c(O)c3s2)cc1,283 to 287 °C
9,O=C(Nc1cccc(Nc2ccc3c(c2)NC(=O)C3=Cc2ccc[nH]2)c1)Nc1cc(F)c(F)cc1F,224 to 226 °C
10,CC(C)Oc1cc(-n2c(=O)[nH]c3c(c2=O)CCC3)c(F)cc1Cl,215 to 217 °C
11,CC(C)NC(=O)C(=O)c1ccc(Cl)cc1,79 °C
12,CCCCn1nc(SC2CCC(CC(=O)O)CC2)c(C(=O)O)c1Cc1cc2c(cc1Cl)OCO2 (stereo unspecified),100 °C
13,Fc1ccc2c(c1)nc(/C=C/c1ccccc1)n2-c1ccccn1,134 to 135 °C
14,CN1C(=O)[C@@H](NC(=O)C2CCCCC2)N=C(c2ccccc2)c2ccccc21,212 to 214 °C
15,Cc1ccn(-c2nc3ccccc3c(=O)[nH]2)n1,162 to 165 °C
16,Cc1nc(N2C[C@H](C)N(Cc3ccc(F)cc3)C2=O)sc1C(N)=O,185 to 186 °C
17,CCCc1nc2c(N)nc(C)c(C)c2n1CCCCCS(=O)(=O)c1ccccc1,134 to 136 °C
18,CON(C)C(=O)C(O)CNC(=O)c1cc2cc(Cl)ccc2[nH]1 (racemic),192 °C
19,O=C1CC(c2ccccc2)CC(=O)O1,102 to 103 °C
20,COc1cc(Nc2nccc(-c3cccc(N)c3)n2)cc(OC)c1OC,166 to 167 °C
21,CCc1c(Oc2cc(C)cc(C)c2)[nH]c(=O)[nH]c1=O,91 to 92 °C
22,CC(C)(CCl)C(=O)N(O)Cc1ccccc1,90 to 92 °C
23,CN(C)C1(c2ccccc2)CCC2(NCCc3c2[nH]c2ccccc32)C(Sc2ccccc2)C1 (stereo unspecified),171 to 173 °C
